# Experimental data reported in patent US7678549B2, “Polyphenol inhibition of nucleoside diphosphate kinase-B activity and cancer metastasis” (Research Development Foundation, priority 2001, dated 2010).
# Experiments:
# [1] = biological target: T1, tumor cell-secreted nucleoside diphosphate kinase-B (NDPK-B, Nm23-H2) (Homo sapiens, UniProt P22392); experiment: NDPK-B kinase activity assay (ADP to ATP with GTP as phosphoryl donor, luciferin-luciferase); type: biochemical; settings: for IC50 / Inhibition: inhibition of NDPK-B activity; for Inhibition: Yes/No, conc. tested differs per compound (0.3-10,000 μM); for inhibition of nucleoside diphosphate kinase-B activity (in words): summary of Table 1; for Km: KM of NDPK-B for ADP in presence of the inhibitor
# T1 construct: Partially purified tumor cell-secreted nucleoside diphosphate kinase-B was incubated with ADP and GTP; endogenous in cells; host or cells: human tumor cell lines MDA-MB-435s, Calu-1, WiDr and PC-3; concentrated conditioned Krebs buffer
# Procedure: The human tumors MDA-MB-435s (breast ductal carcinoma), Calu-1 (metastatic lung carcinoma), WiDr (colorectal carcinoma), and PC-3 (prostatic carcinoma) were grown to confluence in DMEM with 10% heat-inactivated FBS and antibiotics. Media was replaced with Krebs buffer (25 mM Hepes, pH 7.4) and incubated at 37° C. with gentle rocking for 4 hours. The supernatant was removed and concentrated by spin concentrators. Nucleoside diphosphate kinase activity of the retentate was assayed for activity and stored at −20° C.
# Conversion of ADP to ATP, using GTP as the phosphoryl donor, was quantified using the Luciferin-Luciferase ATP assay as we have previously described (9). All necessary steps were taken to eliminate and account for interference between potential nucleoside diphosphate kinase-B inhibitors and the luciferase in the assay.
# Partially purified tumor cell-secreted nucleoside diphosphate kinase-B was incubated with ADP and GTP in the presence of varying concentrations of putative nucleoside diphosphate kinase inhibitors or putative metastasis/angiogenesis inhibitors and the resulting ATP generated was measured by chemiluminescence using the luciferin-luciferase assay. […] Molecular modeling studies support these kinetic assumptions (data not shown).
# [2] = test system: Endothelial cells (CD31+ cells from guinea pig hearts); experiment: Angiogenesis assay (endothelial tube formation on EHS matrix); type: cell-based; settings: 30 and 100 μM, ~16 hrs, endothelial tubes on EHS matrix
# Procedure: Endothelial cells (CD31^+ cells from guinea pig hearts) were plated on a matrix composed of basement proteins from the Engelbreth Holm-Swarm (EHS) mouse tumor. The cells were incubated for 16 hrs in Complete Dulbecco's Modified Eagle Medium (CDMEM) with added tea catechins ellagic acid (EA), epigallocatechin gallate (EGCG), and epicatechin gallate (ECG). Bright field images were taken using a Nikon phase-contrast microscope and a Pulnix digital camera. […] Data are representative of two experiments. Fluorescence activated cell sorting (FACS) was used to select cardiac endothelial cells positive for the PECAM marker CD31. Endothelial cells were plated on a matrix of basement proteins from the Engelbreth Holm-Swarm (EHS) mouse tumor. A complete DME media containing 10% FBS was used to maintain endothelial cultures. Differentiation of the cells into endothelial tubes was monitored in the presence and absence of the compounds of interest.
# [3] = test system: caspase-3; experiment: Caspase-3 activity in staurosporine-treated endothelial cells; type: cell-based, guinea pig; settings: for caspase-3 activity (DEVDase): near-confluent monolayers of endothelial cells, cyclodextrin as pretreatment before staurosporine; for caspase-3 fluorescent substrate pattern in intact cells: staurosporine for 3 hours, with or without cholesterol-altering agents
# Procedure: Control cells received 0.05% DMSO final as a control for drug vehicle (n=4). Clarified supernatants from detergentsolubilized cells are assayed for DEVDase activity using the colorimetric caspase-3 substrate DEVD-pnitroaniline.
# The sequestration of cholesterol from the plasma membrane can disrupt the localization of proteins within caveolae and lipid rafts, which has shown to interrupt signaling pathways.
# Using a fluorescent substrate, caspase-3 activity can b e visualized in intact cell preparations.
# [4] = test system: guinea pig thoracic aorta; experiment: Thoracic aorta in organ bath, measurement of tension; settings: for effect on norepinephrine-contracted aorta: added at peak norepinephrine contraction, endothelium present
# [5] = test system: Human endothelial cells monolayer; experiment: Tumor cell-induced paracellular holes in endothelial cell monolayers; type: cell-based; settings: added at the same time as tumor cells
# Text: Additional studies aimed at direct analysis of the ability of polyphenolic catechin gallates to prevent breast cancer cell entry into and exit from vessels has been addressed by examining the ability of tumor cells to induce paracellular passages in endothelial cells monolayers in culture. Human endothelial cells grown to confluence in culture can be examined as a model of capillary intravasation or extravasation as in cases of human breast cancer metastasis in vivo, by examining their ability to form large (>30 μm) holes between cells (paracellular holes). […] Addition of tumor cells on top of the monolayer at concentrations of 1 cancer cell per 10,000 endothelial cells leads to the wide-spread appearance of large paracellular holes in the monolayer within 15 minutes of application of tumor cells. […] The effect is complete at 30 μM epigallocatechin gallate. Careful quantification of the presence of paracellular holes is underway using video imaging.
# T1 sequence (P22392 whole entry): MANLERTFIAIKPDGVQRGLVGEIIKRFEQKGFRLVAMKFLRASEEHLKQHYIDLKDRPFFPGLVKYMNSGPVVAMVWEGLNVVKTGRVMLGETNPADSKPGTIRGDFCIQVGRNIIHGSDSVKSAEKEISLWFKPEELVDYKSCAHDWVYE
Compound,IC50 [1] [mM],Inhibition [1],inhibition of nucleoside diphosphate kinase-B activity (in words) [1],other results
"O=C(O[C@@H]1Cc2c(O)cc(O)cc2O[C@@H]1c1ccc(O)c(O)c1)c1cc(O)c(O)c(O)c1 [ECG, epicatechin gallate]",0.17,Yes,,inhibition of angiogenesis [2]: dose-dependent inhibition of angiogenesis
CN[C@@H]1C[C@H]2O[C@@](C)([C@@H]1OC)n1c3ccccc3c3c4c(c5c6ccccc6n2c5c31)C(=O)NC4 [Staurosporine],,,,caspase-3 activity (DEVDase) [3]: induce caspase-3 activity; caspase-3 fluorescent substrate pattern in intact cells [3]: punctate fluorescence
"O=c1c(-c2ccc(O)cc2)coc2cc(O)cc(O)c12 [Genestein, genestein]",,No,,
NC[C@H](O)c1ccc(O)c(O)c1 [norepinephrine],,,,contraction of aorta ([4]; addition to resting vessel): contraction that is stable over time
fillipin III,,,,caspase-3 fluorescent substrate pattern in intact cells [3]: global diffuse fluorescence
Nc1ncnc2c1nc(Cl)n2[C@@H]1O[C@@H]2COP(=O)(O)O[C@H]2[C@H]1O [8-Cl-cAMP],,Yes,relatively low potency,Km [1]: 7.5 ± 1.5 µM; IC50 ([1]; value in mM): ~1 mM
CSc1nc(N)c2ncn([C@@H]3O[C@H](COP(=O)(O)OP(=O)(O)OP(=O)(O)O)[C@@H](O)[C@H]3O)c2n1 [2-methyl thio-ATP],,,,effect on norepinephrine-contracted aorta [4]: completely relaxes
β methyl-cyclodextrin,,,,caspase-3 activity (DEVDase) [3]: enhances enzymatic activity; caspase-3 fluorescent substrate pattern in intact cells [3]: global diffuse fluorescence
"Oc1cc(O)c2c(c1)O[C@H](c1cc(O)c(O)c(O)c1)[C@H](O)C2 [EGC, epigallocatechin]",,No,inhibited,

# Further lines, with some results ahead:
IC50 [1] [mM],Inhibition [1],inhibition of nucleoside diphosphate kinase-B activity (in words) [1],Compound,other results
0.023,Yes,highest inhibitory effect,"O=c1oc2c(O)c(O)cc3c(=O)oc4c(O)c(O)cc1c4c23 [Ellagic Acid, hexahydroxydiphenic acid dilactone]",inhibition of angiogenesis [2]: dose-dependent inhibition of angiogenesis
0.6,Yes,,O=c1c(O)cccc2cc(O)c(O)c(O)c12 [Purpurogallin],
,No,,"Oc1ccc(C=Cc2cc(O)cc(O)c2)cc1 [Resveratrol, resveratrol]",
0.15,Yes,inhibited,"O=C(O[C@@H]1Cc2c(O)cc(O)cc2O[C@@H]1c1cc(O)c(O)c(O)c1)c1cc(O)c(O)c(O)c1 [EGCG, epigallocatechin gallate]","Km [1]: 9.7 ± 1.8 µM; inhibition of angiogenesis [2]: dose-dependent inhibition of angiogenesis; effect on norepinephrine-contracted aorta [4]: further small contraction of the vessel followed by relaxation; effect on norepinephrine-contracted aorta ([4]; listed as epigallocatechin gallate): dramatic relaxation; effect on aorta in the absence of endothelium ([4]; norepinephrine-contracted, endothelium absent): both contraction and relaxation are lost; EGCG-dependent relaxation after pretreatment with L-NAME ([4]; pretreatment with nitric oxide synthase inhibitor L-NAME): blocks epigallocatechin gallate-dependent relaxation; formation of paracellular passages (holes >30 μm) induced by tumor cells ([5]; 1 to 100 μM): prevents the formation of the paracellular passages in a dose-dependent fashion; concentration at which prevention of paracellular passages is complete [5]: 30 µM"
,No,,Cc1cn([C@H]2C[C@H](N=[N+]=[N-])[C@@H](CO)O2)c(=O)[nH]c1=O [AZT],
0.5,Yes,relatively low potency,Nc1ncnc2c1ncn2[C@@H]1O[C@H](COP(=O)(O)OS(=O)(=O)O)[C@@H](OP(=O)(O)O)[C@H]1O [PAPS],Km [1]: 7.1 ± 1.4 µM
